Source: patent EP0240391A1, “Silver salt derived from naphthyridine, useful as a bactericide, process for its preparation and compositions containing it” (EDMOND PHARMA S.R.L., priority 1986, dated 1987)

What was measured:
[1] = compared with the corresponding free acid; from European patent 49593; cited from earlier work
[2] = system: Streptococcus pyogenes; assay: In vitro antibacterial activity, MIC (CMI) by agar dilution method; type: cell-based; conditions: 4 strains
Excerpt: (§1) Pour l'évaluation des activités antibactérienne et antifongique ont été testées 24 souches de bactéries et 11 de champignons isolées de matériel pathologique humain récent ou provenant de collections internationales, ainsi subdivisées :
(§2) Pour l'activité in vitro on a déterminé la CMI par la méthode des dilutions (milieu agar) selon la technique classique.
(§3) La solution mère des produits à tester (composé de formule I et acide libre de départ) a été préparée par dissolution dans le diméthylsulfoxyde et addition d'eau distillée dans le rapport 1 : 1O. Les solutions ultérieures ont été préparées par dilution avec de l'eau distillée ou avec le terrain minimum essential d'Eagle contenant 3 % de serum de veau.
(§4) Les concentrations ont été exprimées en µg de substance active, calculée comme acide libre, par ml de milieu.
(§5) Le tableau I montre l'activité antibactérienne in vitro du sel d'argent de formule I ci-dessus (Composé I) et de l'acide libre correspondant (Acide libre), exprimée par le nombre de souches sensibles aux produits testés à des concentrations de 3O à O,O1 µg/ml.

[3] = system: Staphylococcus aureus (pen. rés.); assay: as above; type: cell-based; conditions: 2 penicillin-resistant strains
Excerpt: as §1, §2, §3, §4, §5

[4] = system: Streptococcus epidermidis; assay: as above; type: cell-based; conditions: 3 strains
Excerpt: as §1, §2, §3, §4, §5

[5] = system: Staphylococcus aureus; assay: as above; type: cell-based; conditions: 4 strains
Excerpt: as §1, §2, §3, §4, §5

[6] = system: Pseudomonas aeruginosa; assay: as above; type: cell-based; conditions: 4 strains
Excerpt: as §1, §2, §3, §4, §5

[7] = system: Streptococcus faecalis; assay: as above; type: cell-based; conditions: 2 strains
Excerpt: as §1, §2, §3, §4, §5

[8] = system: Escherichia coli; assay: as above; type: cell-based; conditions: 5 strains
Excerpt: as §1, §2, §3, §4, §5

[9] = system: Candida albicans; assay: In vitro antifungal activity, MIC (CMI) by agar dilution method; type: cell-based; conditions: for nombre de souches sensibles aux concentrations suivantes (en µg/ml): 5 strains
Excerpt: as §1, §2, §3, §4

[10] = system: Trichophyton rubrum; assay: as above; type: cell-based; conditions: for nombre de souches sensibles aux concentrations suivantes (en µg/ml): 2 strains
Excerpt: as §1, §2, §3, §4

[11] = system: Trichophyton mentagrophytes; assay: as above; type: cell-based; conditions: for nombre de souches sensibles aux concentrations suivantes (en µg/ml): 4 strains
Excerpt: as §1, §2, §3, §4

[12] = Photosensitivity compared with other antibacterial silver salts; type: physicochemical; conditions: e.g. sel d'argent de la sulfadiazine, solid state and in solution

Compound: sel d'argent de l'acide 1-éthyl-6-fluoro-1,4-dihydro-4-oxo-7-(1-pipérazinyl)-quinolinyl-3-carboxilique
- activité antibactérienne [1]: du même ordre que celle de l'acide libre correspondant

Compound: sel d'argent de l'acide 1-éthyl-6-fluoro-1,4-dihydro-4-oxo-7-(1-pipérazinyl)-1,8-naphtyridine-3-carboxylique [Composé I]
- Nombre de souches sensibles aux concentrations suivantes (µg/ml) ([2]; 1 µg/ml (as free acid)): 1
- Nombre de souches sensibles aux concentrations suivantes (µg/ml) ([2]; 3 µg/ml (as free acid)): 2
- Nombre de souches sensibles aux concentrations suivantes (µg/ml) ([2]; 10 µg/ml (as free acid)): 1
- Nombre de souches sensibles aux concentrations suivantes (µg/ml) ([3]; 0,1 µg/ml (as free acid)): 1
- Nombre de souches sensibles aux concentrations suivantes (µg/ml) ([3]; 0,3 µg/ml (as free acid)): 1
- Nombre de souches sensibles aux concentrations suivantes (µg/ml) ([4]; 0,3 µg/ml (as free acid)): 1
- Nombre de souches sensibles aux concentrations suivantes (µg/ml) ([4]; 1 µg/ml (as free acid)): 1
- Nombre de souches sensibles aux concentrations suivantes (µg/ml) ([4]; 3 µg/ml (as free acid)): 1
- Nombre de souches sensibles aux concentrations suivantes (µg/ml) ([5]; 0,1 µg/ml (as free acid)): 3
- Nombre de souches sensibles aux concentrations suivantes (µg/ml) ([5]; 0,3 µg/ml (as free acid)): 1
- Nombre de souches sensibles aux concentrations suivantes (µg/ml) ([6]; 0,1 µg/ml (as free acid)): 3
- Nombre de souches sensibles aux concentrations suivantes (µg/ml) ([6]; 0,03 µg/ml (as free acid)): 1
- Nombre de souches sensibles aux concentrations suivantes (µg/ml) ([7]; 1 µg/ml (as free acid)): 1
- Nombre de souches sensibles aux concentrations suivantes (µg/ml) ([7]; 3 µg/ml (as free acid)): 1
- Nombre de souches sensibles aux concentrations suivantes (µg/ml) ([8]; 0,1 µg/ml (as free acid)): 2
- Nombre de souches sensibles aux concentrations suivantes (µg/ml) ([8]; 0,03 µg/ml (as free acid)): 1
- Nombre de souches sensibles aux concentrations suivantes (µg/ml) ([8]; 0,3 µg/ml (as free acid)): 2
- nombre de souches sensibles aux concentrations suivantes (en µg/ml) ([9]; 3 µg/ml (as free acid)): 1
- nombre de souches sensibles aux concentrations suivantes (en µg/ml) ([9]; 10 µg/ml (as free acid)): 3
- nombre de souches sensibles aux concentrations suivantes (en µg/ml) ([9]; 30 µg/ml (as free acid)): 1
- nombre de souches sensibles aux concentrations suivantes (en µg/ml) ([10]; 10 µg/ml (as free acid)): 1
- nombre de souches sensibles aux concentrations suivantes (en µg/ml) ([10]; 30 µg/ml (as free acid)): 1
- nombre de souches sensibles aux concentrations suivantes (en µg/ml) ([11]; 3 µg/ml (as free acid)): 1
- nombre de souches sensibles aux concentrations suivantes (en µg/ml) ([11]; 10 µg/ml (as free acid)): 2
- nombre de souches sensibles aux concentrations suivantes (en µg/ml) ([11]; 30 µg/ml (as free acid)): 1
- photosensibilité [12]: moins photosensible

Compound: CCn1cc(C(=O)O)c(=O)c2cc(F)c(N3CCNCC3)nc21 [Acide libre, acide 1-éthyl-6-fluoro-1,4-dihydro-4-oxo-7-(1-pipérazinyl)-1,8-naphtyridine-3-carboxylique, reference compound]
- Nombre de souches sensibles aux concentrations suivantes (µg/ml) ([2]; 1 µg/ml (as free acid)): 1
- Nombre de souches sensibles aux concentrations suivantes (µg/ml) ([2]; 3 µg/ml (as free acid)): 1
- Nombre de souches sensibles aux concentrations suivantes (µg/ml) ([2]; 10 µg/ml (as free acid)): 2
- Nombre de souches sensibles aux concentrations suivantes (µg/ml) ([3]; 0,3 µg/ml (as free acid)): 1
- Nombre de souches sensibles aux concentrations suivantes (µg/ml) ([3]; 1 µg/ml (as free acid)): 1
- Nombre de souches sensibles aux concentrations suivantes (µg/ml) ([4]; 3 µg/ml (as free acid)): 2
- Nombre de souches sensibles aux concentrations suivantes (µg/ml) ([4]; 10 µg/ml (as free acid)): 1
- Nombre de souches sensibles aux concentrations suivantes (µg/ml) ([5]; 0,1 µg/ml (as free acid)): 1
- Nombre de souches sensibles aux concentrations suivantes (µg/ml) ([5]; 1 µg/ml (as free acid)): 2
- Nombre de souches sensibles aux concentrations suivantes (µg/ml) ([6]; 0,3 µg/ml (as free acid)): 3
- Nombre de souches sensibles aux concentrations suivantes (µg/ml) ([6]; 1 µg/ml (as free acid)): 1
- Nombre de souches sensibles aux concentrations suivantes (µg/ml) ([7]; 10 µg/ml (as free acid)): 1
- Nombre de souches sensibles aux concentrations suivantes (µg/ml) ([7]; 30 µg/ml (as free acid)): 1
- Nombre de souches sensibles aux concentrations suivantes (µg/ml) ([8]; 0,1 µg/ml (as free acid)): 2
- Nombre de souches sensibles aux concentrations suivantes (µg/ml) ([8]; 0,03 µg/ml (as free acid)): 1
- Nombre de souches sensibles aux concentrations suivantes (µg/ml) ([8]; 0,3 µg/ml (as free acid)): 2
- MIC ([9]; Candida albicans, same 5 strains as Table II, read-out: activité antifongique: inactif jusqu'à des concentrations de): > 1 µg/mL
- MIC ([10]; Trichophyton rubrum, same 2 strains as Table II, read-out: activité antifongique: inactif jusqu'à des concentrations de): > 1 µg/mL
- MIC ([11]; Trichophyton mentagrophytes, same 4 strains as Table II, read-out: activité antifongique: inactif jusqu'à des concentrations de): > 1 µg/mL
